Patent US20070049626A1, “Treating premature ejaculation using gabapentin and pregabalin prodrugs” (priority 2005, published 2007)

Assays:
[1] = system: PCA-induced ejaculation in anaesthetized rats; experiment: p-chloroamphetamine (PCA)-induced ejaculation in anaesthetized rats; format: in vivo, rat; settings: for effect on PCA-induced ejaculation: 1, 3, 10 or 30 mg/kg po, 60 min prior to PCA; for quality of erection: PCA model; for ejaculatory latency: doses above 3 mg/kg po, excipient-only about 300 s
Procedure: (§1) For all the sexual behavior tests, the rapid ejaculating Sprague Dawley rats, weighing 350-450 g, are used as an animal model of premature ejaculation (classified as ejaculatory latency <300 s during baseline assessment). Prior to the experiments the animals are housed in groups (2 rats per cage) under controlled 12 h light-dark cycle (lights on at 07:00), constant temperature (23±1° C.), and humidity (55±5%). The animals are given free access to standard food pellets and water.
The compounds are dosed orally by taking the tablets of Examples 1 and 2, finely crushing them and suspending the resulting powder in an aqueous vehicle for oral administration to rats by gavage. Compounds (100) and (101) are tested at 1, 3, 10 or 30 mg/kg po, 60 min prior to PCA administration. Compounds (100) and (101) each dose-dependently increases ejaculatory latency by up to 250%. As a baseline comparison, some of the rats are given a placebo formulation similar to Examples 1 and 2, but containing no prodrug.

[2] = system: rapid ejaculating Sprague Dawley rats; experiment: Copulatory behavior in rapid ejaculating conscious rats (model of premature ejaculation); format: in vivo, rat; settings: rapidly-ejaculating conscious rats; for other effects on copulatory behavior: 10 mg/kg oral; for increase of ejaculatory latency / ejaculatory latency (time to ejaculate): 10 mg/kg, 60 min post oral dosing; for increase of ejaculatory latency: P<0.01; for ejaculatory latency (time to ejaculate): excipient-only about 140 s
Procedure: as §1
The rats are placed in an observation arena (50-60 cm diameter), starting 5 hours into the dark cycle and observed under red illumination. Three to four minutes after placing the male in the arena, a receptive female (ovariectomised, oestradiol benzoate/progesterone injection 48 hour before behavioral study) is introduced into the arena and the following parameters are noted: (i) ejaculatory latency (EJL; time taken from addition of receptive female into the arena to ejaculation); (ii) copulatory efficiency (CE; ejaculatory latency/the number of intromissions to ejaculation, i.e., the number of seconds between intromissions); (iii) intromission frequency (IF; the number of intromissions to ejaculation); (iv) mount frequency (MF; the number of mounts to ejaculation); (v) post ejaculatory interval (PEI; the time taken from ejaculation to the commencement of copulatory behavior).
Rodent copulatory behavior is characterized by a series of mounts, with and without vaginal insertion (50-80% of mounts result in intromission (vaginal penetration)) and ejaculation occurs after 6 to 12 intromissions. Each intromission lasts a matter of seconds—it is not possible to quantify intromission length i.e., intravaginal latency. The effect of compounds (100) and (101) is assessed on a number of copulatory parameters (see above). We are focusing on ejaculatory latency as an objective clinical outcome measure of time taken to achieve ejaculation. The study is performed in rapid ejaculating rats as a model of premature ejaculation (rats characterized by ejaculatory latency <300 s at baseline). Compound (100) and (101) increases ejaculatory latency by 58% in rapidly-ejaculating conscious rats (P<0.01), i.e., compound (100) and (101) (each to be dosed at 10 mg/kg, 60 min post oral dosing)-treated animals take about 200 s to ejaculate compared to about 140 s in excipient-only treated animals.

[3] = Tmax after oral administration of immediate release formulation; format: in vivo; settings: human, blood, following oral administration
From the text: The compounds disclosed herein, for example, the gabapentin prodrug 1-{[(α-isobutanoyloxyethoxy)carbonyl]aminomethyl}-1-cyclohexane acetic acid, is more efficacious than the parent drug molecule (i.e., gabapentin) in treating premature ejaculation because the disclosed compounds require less time to reach a therapeutic concentration in the blood, i.e., the compounds disclosed herein have a shorter Tmax than their gabapentin or pregabalin “counterparts” when taken orally. […] This provides an advantage over the parent drugs (i.e., gabapentin and pregabalin) in that the patient need not wait as long after administering the prodrugs before a therapeutic concentration of the active parent drug in the blood is reached. Thus, the prodrugs disclosed herein allow the patient to dose shortly before sexual activity, allowing sexual activity to occur with more spontaneity, compared to dosing of either gabapentin or pregabalin.

## CC(OC(=O)NCC1(CC(=O)O)CCCCC1)OC(=O)C(C)C (stereo not drawn) [Compound (100), 1-{[(α-Isobutanoyloxyethoxy)carbonyl]aminomethyl}-1-Cyclohexane Acetic Acid]
[1]
  effect on PCA-induced ejaculation: significantly delays
  quality of erection: not influenced
  ejaculatory latency: about 1000 s
[2]
  other effects on copulatory behavior: no other significant effects
  increase of ejaculatory latency: 58%
  ejaculatory latency (time to ejaculate): about 200 s

## CC(C)CC(CNC(=O)OC(C)OC(=O)C(C)C)CC(=O)O (stereo not drawn) [Compound (101), 3-{[(α-Isobutanoyloxyethoxy)carbonyl]aminomethyl}-5-methyl Hexanoic Acid]
[1]
  effect on PCA-induced ejaculation: significantly delays
  quality of erection: not influenced
  ejaculatory latency: about 1000 s
[2]
  other effects on copulatory behavior: no other significant effects
  increase of ejaculatory latency: 58%
  ejaculatory latency (time to ejaculate): about 200 s

## NCC1(CC(=O)O)CCCCC1 [gabapentin]
[3]
  Tmax: 2.8 to 3.3 h
